Where two headings read alike, the source gives them in different places.
System: Mycosphaerella graminicola; Anamorph: Septoria tritici; Bayer Code SEPTTR
Assay: Leaf blotch of wheat, foliar fungicide treatment, one day protectant (1DP) or three day curative (3DC)
Type: in vivo, Septoria tritici on wheat plants (variety Yuma)
Conditions: Zymoseptoria tritici
[1] = 24 h, one day protectant (1DP), 25 ppm (first 1DP column), percent control rating, read-out: SETTTR 1DP 25 ppm
[2] = 24 h, one day protectant (1DP), 25 ppm as printed (second 1DP column), percent control rating, read-out: SETTTR 1DP 25 ppm
[3] = 72 h, three day curative (3DC), 25 ppm, percent control rating, read-out: SEPTTR 3DC 25 ppm
[4] = 72 h, three day curative (3DC), percent control rating, read-out: SEPTTR 3DC 100 ppm
[5] = 24 h, one day protectant (1DP), 25 ppm, rating of percent disease control, read-out: SETTTR 1DP 25 ppm
[6] = 24 h, one day protectant (1DP), rating of percent disease control, read-out: SEPTTR 1DP 100 ppm
[7] = 72 h, three day curative (3DC), 25 ppm, rating of percent disease control, read-out: SEPTTR 3DC 25 ppm
[8] = 72 h, three day curative (3DC), rating of percent disease control, read-out: SEPTTR 3DC 100 ppm
[9] = 24 h, one day protectant, 25 ppm, rating of percent disease control, read-out: SETTTR 1DP 25 ppm
[10] = 24 h, one day protectant, rating of percent disease control, read-out: SEPTTR 1DP 100 ppm
[11] = 72 h, three day curative, 25 ppm, rating of percent disease control, read-out: SEPTTR 3DC 25 ppm
[12] = 72 h, three day curative, rating of percent disease control, read-out: SEPTTR 3DC 100 ppm
[13] = 24 h, % disease control rating, one day protectant
[14] = 24 h, one day protectant (1DP), 25 ppm, percent disease control rating, read-out: SETTTR 1DP 25 ppm
[15] = 24 h, one day protectant (1DP), percent disease control rating, read-out: SEPTTR 1DP 100 ppm
[16] = 72 h, three day curative (3DC), 25 ppm, percent disease control rating, read-out: SEPTTR 3DC 25 ppm
[17] = 72 h, three day curative (3DC), percent disease control rating, read-out: SEPTTR 3DC 100 ppm

Structure (SMILES): CCS(=O)(=O)Nc1nc(OCc2ccc(C)cc2)ncc1F [Compound 1006]
- pest or weed control at 25 ppm [1]: 0 to 25%
- pest or weed control at 25 ppm [2]: 0 to 25%
- pest or weed control at 25 ppm [3]: 0 to 25%
- pest or weed control at 100 ppm [4]: 0 to 25%

Structure (SMILES): COC(=O)Oc1ncc(F)c(/N=C/N(C)C)n1 [Compound 517]
- pest or weed control at 25 ppm [5]: 76 to 100%
- pest or weed control at 100 ppm [6]: 76 to 100%
- pest or weed control at 25 ppm [7]: 76 to 100%
- pest or weed control at 100 ppm [8]: 76 to 100%

Structure (SMILES): C/C(=N\Nc1nc(OCc2ccc(C)cc2)ncc1F)c1ccc(Cl)nc1 [Compound 301]
- pest or weed control at 25 ppm [5]: 26 to 50%
- pest or weed control at 100 ppm [6]: 26 to 50%
- pest or weed control at 25 ppm [7]: 51 to 75%
- pest or weed control at 100 ppm [8]: 76 to 100%

Structure (SMILES): O=[N+]([O-])c1ccccc1SNc1nc(OCc2ccccc2)ncc1F [Compound 558]
- pest or weed control at 25 ppm [9]: 76 to 100%
- pest or weed control at 100 ppm [10]: 76 to 100%
- pest or weed control at 25 ppm [11]: 26 to 50%
- pest or weed control at 100 ppm [12]: 26 to 50%

Structure (SMILES): Cc1ccc(CNc2nc(OCc3ccc(Cl)cc3)ncc2F)cc1 [Compound 920]
- pest or weed control at 50 ppm (24 h, % disease control rating, one day protectant, 50 ppm): 76 to 100%
- pest or weed control at 200 ppm [13]: 76 to 100%

Structure (SMILES): CCOCCOc1cccc(COc2ncc(F)c(NSc3ccccc3[N+](=O)[O-])n2)c1 [Compound 655]
- pest or weed control at 25 ppm [9]: 51 to 75%
- pest or weed control at 100 ppm [10]: 76 to 100%
- pest or weed control at 25 ppm [11]: 51 to 75%
- pest or weed control at 100 ppm [12]: 26 to 50%

Structure (SMILES): CC(Oc1ncc(F)c(N)n1)c1ccc(Oc2ccccc2)cc1 (stereo not drawn) [Compound 474]
- pest or weed control at 25 ppm [5]: 76 to 100%
- pest or weed control at 100 ppm [6]: 76 to 100%
- pest or weed control at 25 ppm [7]: 76 to 100%
- pest or weed control at 100 ppm [8]: 76 to 100%

Structure (SMILES): CONc1nc(OC)ncc1F [Compound 1058]
- pest or weed control at 25 ppm [1]: 0 to 25%
- pest or weed control at 25 ppm [2]: 0 to 25%
- pest or weed control at 25 ppm [3]: 0 to 25%
- pest or weed control at 100 ppm [4]: 0 to 25%

Structure (SMILES): Cc1c(N)cccc1COc1ncc(F)c(N)n1 [Compound 399]
- pest or weed control at 25 ppm [5]: 51 to 75%
- pest or weed control at 100 ppm [6]: 76 to 100%
- pest or weed control at 25 ppm [7]: 76 to 100%
- pest or weed control at 100 ppm [8]: 76 to 100%

Structure (SMILES): CC(C)c1ccc(C(C)Oc2ncc(F)c(N)n2)cc1 (stereo not drawn) [Compound 387]
- pest or weed control at 25 ppm [5]: 76 to 100%
- pest or weed control at 100 ppm [6]: 76 to 100%
- pest or weed control at 25 ppm [7]: 76 to 100%
- pest or weed control at 100 ppm [8]: 76 to 100%

Structure (SMILES): CCOC(=O)Nc1nc(OCc2ccccc2OC)ncc1F [Compound 150]
- pest or weed control at 25 ppm [14]: 0 to 25%
- pest or weed control at 100 ppm [15]: 76 to 100%
- pest or weed control at 25 ppm [16]: 26 to 50%
- pest or weed control at 100 ppm [17]: 76 to 100%

Structure (SMILES): COc1ccccc1COc1ncc(F)c(NC2CC2)n1 [Compound 821]
- pest or weed control at 200 ppm [13]: 76 to 100%

Structure (SMILES): CN(C)/C=N/c1nc(OCc2cccc(F)c2)ncc1F [Compound 494]
- pest or weed control at 25 ppm [5]: 76 to 100%
- pest or weed control at 100 ppm [6]: 76 to 100%
- pest or weed control at 25 ppm [7]: 76 to 100%
- pest or weed control at 100 ppm [8]: 76 to 100%

Structure (SMILES): COc1ccc(/C(C)=N/Oc2ncc(F)c(N)n2)cc1 [Compound 999]
- pest or weed control at 25 ppm [1]: 76 to 100%
- pest or weed control at 25 ppm [2]: 76 to 100%
- pest or weed control at 25 ppm [3]: 76 to 100%
- pest or weed control at 100 ppm [4]: 76 to 100%

Structure (SMILES): Fc1ccccc1NC(=S)Nc1nc(OCc2ccccc2)ncc1F [Compound 539]
- pest or weed control at 25 ppm [5]: 76 to 100%
- pest or weed control at 100 ppm [6]: 76 to 100%
- pest or weed control at 25 ppm [7]: 0 to 25%
- pest or weed control at 100 ppm [8]: 0 to 25%

Structure (SMILES): Nc1nc(OCc2ccc3c(c2)OCO3)ncc1F [Compound 178]
- pest or weed control at 25 ppm [14]: 76 to 100%
- pest or weed control at 100 ppm [15]: 76 to 100%
- pest or weed control at 25 ppm [16]: 76 to 100%
- pest or weed control at 100 ppm [17]: 76 to 100%

Structure (SMILES): O=[N+]([O-])c1ccccc1SNc1nc(OCc2ccc(F)cc2F)ncc1F [Compound 662]
- pest or weed control at 25 ppm [9]: 0 to 25%
- pest or weed control at 100 ppm [10]: 76 to 100%
- pest or weed control at 25 ppm [11]: 26 to 50%
- pest or weed control at 100 ppm [12]: 26 to 50%

Structure (SMILES): CC(Oc1ncc(F)c(N)n1)c1c(F)c(F)c(F)c(F)c1F (stereo not drawn) [Compound 544]
- pest or weed control at 25 ppm [5]: 0 to 25%
- pest or weed control at 100 ppm [6]: 26 to 50%
- pest or weed control at 25 ppm [7]: 0 to 25%
- pest or weed control at 100 ppm [8]: 0 to 25%

Structure (SMILES): Fc1ccccc1CNc1nc(OCc2cccs2)ncc1F [Compound 168]
- pest or weed control at 25 ppm [14]: 0 to 25%
- pest or weed control at 100 ppm [15]: 26 to 50%
- pest or weed control at 25 ppm [16]: 0 to 25%
- pest or weed control at 100 ppm [17]: 26 to 50%

Structure (SMILES): CCCNC(=S)Nc1nc(OCc2cccs2)ncc1F [Compound 528]
- pest or weed control at 25 ppm [5]: 76 to 100%
- pest or weed control at 100 ppm [6]: 76 to 100%
- pest or weed control at 25 ppm [7]: 0 to 25%
- pest or weed control at 100 ppm [8]: 51 to 75%

Reference: patent US9204653B2, “5-fluoro pyrimidine derivatives” (DOW AGROSCIENCES LLC, priority 2008, dated 2015)
